# Peptide text beside a SMILES is read from it. * marks the point of attachment. Cbz = O=C(OCc1ccccc1)*
# Experiments:
# [1] = test system: BES1 protein in 35S:BES1:GFP plants; assay: Western blot analysis of BES1 phosphorylation state; format: in vivo, Arabidopsis thaliana
# Procedure: (§1) FIG. 8: A: Western Blot analysis of the BES1 protein in 35S:BES1:GFP plants treated with BL and abrasin (indicated as I5 throughout the figure) (A); MG132 with BL or abrasin (B); a time course with abrasin (C) and a concentration gradient with abrasin (D). B: Abrasin and BL induce similar transcriptional regulation of the BR pathway.
# For protein extraction, six-day-old seedlings were grown under standard conditions as described earlier on solid medium. Plants were next soaked in liquid MS-medium supplemented with the indicated compounds (concentrations and time periods as indicated in figures). Subsequently, plants were frozen in liquid nitrogen, ground and homogenized in ice-cold homogenization buffer (25 mM Tris-HCl (pH 8), 5 mM EDTA, 1 mM β-Mercapto-ethanol, 15 mM MgCl—2, 85 mM NaCl, 0.1% Tween 20, 1 protease inhibitor tablet/50 ml, Complete (Roche diagnostics, Belgium)). The homogenate was centrifuged twice (5 min, 14.000 rpm, 4° C.) in an Eppendorf Centrifuge 5417. Loading buffer was added, the samples were heated for 10 min at 95° C. and centrifuged. The samples were separated on a 12% acrylamide gel or a 4-20% gradient pre-cast gel (Bio-Rad) and blotted on nitrocellulose membranes (Hybond-C super, GE-Biosciences, UK) in 190 mM glycine and 25 mM Tris-Hcl using a mini-blotting system (Bio-Rad, USA) for 1 h. Membranes were blocked overnight at 4° C. in phosphate buffer with 0.1% Tween 20 and 5% skim milk (BD Difco, USA). For immunodetection, anti-BES1 antibodies at 1:2000 dilution and anti-GFP antibodies at 1:1000 dilution were used as primary antibody. As secondary antibody, anti-rat and anti-rabbit were used at 1:10.000 dilution. The proteins were detected by chemiluminescence (Perkin-Elmer, USA).
# [2] = test system: Arabidopsis thaliana seedlings; assay: Lateral root formation / root elongation of seedlings on agar plates; format: in vivo; details: structural variants of abrasin
# Procedure: FIG. 3: (A) Phenotypic characterization. WT plants were grown under standard conditions on agar plates. […] Left panel: control plant. Middle panel: abrasin treated plant. Right panel: BL treated plant. (B) Dose response measurements of abrasin using lateral root formation as an indicator of brassinosteroid like activity. Error bars represent standard error of the mean. […] Osram) at 22° C. Three days after germination compounds were added to the 96-well plates at a final concentration of 50 μM. Plants were screened six days after germination for brassinosteroid-related phenotypes. For further phenotypical analysis, all plants were grown on vertically oriented square plates (Greiner Labortechnik, Austria) with solid medium derived from standard Murashige and Skoog medium under the same conditions. For the hypocotyl-elongation assay, plants were grown in the dark at 22° C. under the same conditions.
# [3] = test system: BR-biosynthetic, BR signaling and BR-induced genes; assay: Real time PCR of BR pathway genes; format: in vivo, Arabidopsis thaliana; details: 30 μM, 2 hours
# Procedure: FIG. 7: Q-PCR analysis of genes involved in BR biosynthesis. WT Arabidopsis plants were treated with abrasin (indicated as I5) for 2 hours at a concentration of 30 μM and/or with CHX at a concentration of 30 μM and RNA was extracted from whole plants.
# as §1
# RNA was extracted with the RNeasy kit. Poly(dT) cDNA was prepared from […] of total RNA with Superscript III reverse transcriptase (Invitrogen) and quantified on an LightCycler 480 apparatus (Roche) with the SYBR Green I Master kit (Roche) according to the manufacturer's instructions. Target quantifications were performed with specific primer pairs designed with the Beacon Designer 4.0 (Premier Biosoft International). All PCRs were performed in triplicate.
# The primers used to quantify gene expression levels were for BAS 1: 5′-[…]-3′ and 5′-[…]-3′; BR6Ox1: 5′-TGGCCAATCTTTGGCGAA-3′ and 5′-[…]-3′; BR6Ox2: 5′-[…]-3′ and 5′-[…]-3′; BRI1: 5′-[…]-3′ and 5′-[…]-3′; CPD: 5′-[…]-3′ and 5′-[…]-3′; DWF4: 5′-[…]-3′ and 5′-[…]-3′ ROT3: 5′-ATTGGCGCGTTCCTCAGAT-3′ and 5′-[…]-3′; BES1: 5′-[…]-3′ and 5′-[…]-3′; BIN2: 5′-[…]-3′ and 5′-[…]-3′; BSU 1: 5′-[…]-3′ and 5′-[…]-3′; BZR1: 5′-[…]-3′ and 5′-[…]-3′; CDKA1; 1: 5′-[…]-3′ and 5′-[…]-3′; EEF1α: 5′-[…]-3′ and 5′-[…]-3′; BKI1: 5′-GCTCCGGCGTCGATGA-3′ and 5′-[…]-3′.
smiles,measurement,setting,value
"CC(C)C[C@@H](C=O)NC(=O)[C@H](CC(C)C)NC(=O)[C@H](CC(C)C)NC(=O)OCc1ccccc1 [MG132, Z-Leu-Leu-Leu-CHO, reference compound] (Cbz-Leu-Leu-Leu-aldehyde)",total amount of BES1 protein,[1]; MG132 treatment,an increase in the total amount of BES1
same,BES1 phosphorylation state,[1]; addition of BL or MG132,no shift in the ratio between the phosphorylated and the dephosphorylated form is observed
"O=C(O)CCC(=O)Nc1ccc(F)cn1 [fluoro derivative, 4-[(5-fluoro-2-pyridinyl)amino]-4-oxobutanoic acid]",effect on lateral root formation as indication of brassinosteroid like activity,[2],highest activity
"C[C@@H]1C[C@@H]([C@H](O)CC2CC(=O)NC(=O)C2)C(=O)[C@@H](C)C1 [CHX, cycloheximide, reference compound]",expression of genes downstream of the BRI1 receptor,[3],able to induce some of these genes
